# Measured values: patent US20240115649A1, “CASPASE INHIBITION TO ENHANCE REGENERATION AND REPAIR AFTER SKIN OR GUT INJURY AND TO TREAT BACTERIAL OR VIRAL INFECTIONS” (The Johns Hopkins University, priority 2020, published 2024)
# What was measured:
# [1] = system: TNF; experiment: Serum TNF levels after S. aureus skin inoculation; assay type: in vivo, mice; settings: days 1 and 3; vs untreated
# Experimental: Serum IL-1β and TNF levels. Serum IL-1β and TNF protein levels (pg/mL) were measured from serum collected on days 1 and 3 after S. aureus skin inoculation±Q-VD-OPH treatment using Bio-Plex protein assays and normalized to total protein, according to the manufacturer's recommendations (Bio-Rad).
# [2] = system: S. pyogenes strain Xen20; assay type: in vivo; settings: WT C57BL/6 mice; single dose at 4 hours; vs untreated
# [3] = system: mouse neutrophils; experiment: Neutrophil cultures with live S. aureus ± caspase inhibitors; settings: Q-VD-OPH 10 μg/mL, live S. aureus 6 hours
# [4] = system: BMDMs; experiment: BMDM cultures with live S. aureus ± caspase inhibitors; settings: Q-VD-OPH 10 μg/mL, live S. aureus 6 hours
# [5] = system: P. aeruginosa strain Xen41; experiment: Bacterial growth curve kinetics, P. aeruginosa broth cultures; assay type: cell-based; settings: 10, 100 and 1,000 μg/mL; vs vehicle
# [6] = system: pMLKL, MLKL, ICAD; experiment: Western blot analysis of infected skin; assay type: in vivo, mice
# [7] = system: mouse epithelial keratinocytes; experiment: Mouse epithelial keratinocyte culture (qRT-PCR, immunoblot)
# [8] = Emricasan 9 μg/mL, no significant differences vs no treatment
smiles,measurement,setting,value
"CC(C)[C@H](NC(=O)c1ccc2ccccc2n1)C(=O)N[C@@H](CC(=O)O)C(=O)COc1c(F)cccc1F [Q-VD-OPH, Quinoline-val-asp-difluorophenoxymethyl ketone]",serum TNF protein levels,[1],increased serum TNF protein levels
same,bacterial burden (in vivo BLI),[2],rapidly reduced bacterial burden
same,skin lesion sizes,[2],substantially decreased skin lesion sizes
same,necroptosis (western blot for pMLKL and MLKL),[3],necroptosis was increased
same,percentages of TNF+ neutrophils,[3]; Emricasan 9 μg/mL,25.47%
same,viable cells (Zombie UV negative cells),[3]; [8],~50%
same,necroptosis (western blot for pMLKL and MLKL),[4],necroptosis was increased
same,percentages of TNF+ BMDMs,[4]; Emricasan 9 μg/mL,33.53%
same,viable cells (Zombie UV negative cells),[4]; [8],~80%
same,in vitro absorbance and bioluminescence,[5],no differences in in vitro absorbance and bioluminescence
same,necroptosis (pMLKL and MLKL expression),"[6]; TNF^−/− mice, day 1, vs untreated or Q-VD-OPH treated WT mice",reduced necroptosis
same,apoptosis (ICAD),"[6]; TNF^−/− mice, infected skin day 1",reduced apoptosis
same,apoptosis (ICAD),"[6]; WT mice, infected skin day 1",reduced apoptosis
same,"necroptosis (pMLKL, MLKL)","[6]; WT mice, infected skin day 1",increases necroptosis
same,IL-36 receptor (IL36r) expression,[7]; 48 hrs treatment,not detected
same,IL-36 receptor antagonist (IL-36m) protein or mRNA levels,[7]; 48 hrs treatment,No differences
same,IL-36α mRNA,[7]; 48 hrs treatment,higher levels of IL-36α mRNA and protein
same,Tlr3 expression,[7]; 48 hrs treatment,again elevated
same,caspase gene mRNA (inflammatory caspases 1 and 4),[7]; 48 hrs treatment,compensatory mRNA increases of caspase genes
same,IL-36α protein (whole-cell lysates),[7]; mouse epithelial keratinocytes,higher levels of IL-36α mRNA and protein
